Measurements published in PubChem BioAssay (NCI).
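Exposure lasted 48 hours, with cells grown in 96-well plates and compounds tested at five concentrations. At the GI50, growth is halved. Definition used: TGI = concentration required for complete inhibition of growth.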

Columns and labels:
Assay in all cases: NCI-60 cell line screen, 48 h
HCT-15 colon = test system: HCT-15 colon
RPMI-8226 leukemia = test system: RPMI-8226 leukemia
UO-31 renal = test system: UO-31 renal
PC-3 prostate = test system: PC-3 prostate
NCI-H226 lung = test system: NCI-H226 lung
NCI-H23 lung = test system: NCI-H23 lung
786-0 renal = test system: 786-0 renal
OVCAR-3 ovarian = test system: OVCAR-3 ovarian
MALME-3M melanoma = test system: MALME-3M melanoma
HS 578T breast = test system: HS 578T breast
UACC-62 melanoma = test system: UACC-62 melanoma
CAKI-1 renal = test system: CAKI-1 renal
BT-549 breast = test system: BT-549 breast
OVCAR-8 ovarian = test system: OVCAR-8 ovarian
ACHN renal = test system: ACHN renal
NCI-H460 lung = test system: NCI-H460 lung
A498 renal = test system: A498 renal
CCRF-CEM leukemia = test system: CCRF-CEM leukemia
SW-620 colon = test system: SW-620 colon
SF-539 CNS = test system: SF-539 CNS
K-562 leukemia = test system: K-562 leukemia
TK-10 renal = test system: TK-10 renal
SNB-19 CNS = test system: SNB-19 CNS
EKVX NSCLC = test system: EKVX NSCLC
SK-OV-3 ovarian = test system: SK-OV-3 ovarian
HOP-62 NSCLC = test system: HOP-62 NSCLC
NCI-H522 lung = test system: NCI-H522 lung
IGROV1 ovarian = test system: IGROV1 ovarian
NCI/ADR-RES ovarian = test system: NCI/ADR-RES ovarian
KM12 colon = test system: KM12 colon
HCT-116 colon = test system: HCT-116 colon
HT29 colon = test system: HT29 colon
LOX IMVI melanoma = test system: LOX IMVI melanoma
M14 melanoma = test system: M14 melanoma
HL-60(TB) leukemia = test system: HL-60(TB) leukemia
MDA-MB-435 = test system: MDA-MB-435
COLO 205 colon = test system: COLO 205 colon
T-47D breast = test system: T-47D breast
SK-MEL-5 melanoma = test system: SK-MEL-5 melanoma
SN12C renal = test system: SN12C renal
U251 CNS = test system: U251 CNS
HOP-92 NSCLC = test system: HOP-92 NSCLC
MOLT-4 leukemia = test system: MOLT-4 leukemia
SK-MEL-2 melanoma = test system: SK-MEL-2 melanoma
SK-MEL-28 melanoma = test system: SK-MEL-28 melanoma
OVCAR-4 ovarian = test system: OVCAR-4 ovarian
MDA-MB-231 breast = test system: MDA-MB-231 breast
SNB-75 CNS = test system: SNB-75 CNS
OVCAR-5 ovarian = test system: OVCAR-5 ovarian
SF-268 CNS = test system: SF-268 CNS
MCF7 breast = test system: MCF7 breast
HCC-2998 colon = test system: HCC-2998 colon
DU-145 prostate = test system: DU-145 prostate
RXF 393 renal = test system: RXF 393 renal
A549 NSCLC = test system: A549 NSCLC
SF-295 CNS = test system: SF-295 CNS
SR leukemia = test system: SR leukemia
UACC-257 melanoma = test system: UACC-257 melanoma

Compound `CCn1cc(C2NC(=O)c3ccccc3N2)c2cccc(C)c21` (stereo not given) has a GI50 (HCT-15 colon) of 360 nM, a TGI (HCT-15 colon) of 24500 nM and a GI50 (RPMI-8226 leukemia) of 381 nM. It also gave a TGI (RPMI-8226 leukemia) greater than 100000 nM, a GI50 (UO-31 renal) of 631 nM and a TGI (UO-31 renal) of 16400 nM. The GI50 (PC-3 prostate) was 443 nM, the TGI (PC-3 prostate) was greater than 100000 nM and the GI50 (NCI-H226 lung) was 572 nM. For the same compound, the TGI (NCI-H226 lung) was 13200 nM, the GI50 (NCI-H23 lung) was 844 nM and the TGI (NCI-H23 lung) was greater than 100000 nM. It also gave a GI50 (786-0 renal) of 539 nM, a TGI (786-0 renal) of 22300 nM and a GI50 (OVCAR-3 ovarian) of 275 nM. For the same compound, the TGI (OVCAR-3 ovarian) was 1020 nM, the GI50 (MALME-3M melanoma) was 449 nM and the TGI (MALME-3M melanoma) was greater than 100000 nM. The GI50 (HS 578T breast) was 255 nM, the TGI (HS 578T breast) was 1950 nM and the GI50 (UACC-62 melanoma) was 311 nM. For the same compound, the TGI (UACC-62 melanoma) was greater than 100000 nM, the GI50 (CAKI-1 renal) was 289 nM and the TGI (CAKI-1 renal) was 20400 nM. For the same compound, the GI50 (BT-549 breast) was 901 nM, the TGI (BT-549 breast) was 17600 nM and the GI50 (OVCAR-8 ovarian) was 617 nM. For the same compound, the TGI (OVCAR-8 ovarian) was 22600 nM, the GI50 (ACHN renal) was 685 nM and the TGI (ACHN renal) was 23100 nM. It also gave a GI50 (NCI-H460 lung) of 346 nM, a TGI (NCI-H460 lung) of 1460 nM and a GI50 (A498 renal) of 172 nM. It also gave a TGI (A498 renal) of 947 nM, a GI50 (CCRF-CEM leukemia) of 324 nM and a TGI (CCRF-CEM leukemia) of 96900 nM. It also gave a GI50 (SW-620 colon) of 337 nM, a TGI (SW-620 colon) greater than 100000 nM and a GI50 (SF-539 CNS) of 275 nM. For the same compound, the TGI (SF-539 CNS) was 1340 nM, the GI50 (K-562 leukemia) was 224 nM and the TGI (K-562 leukemia) was greater than 100000 nM. For the same compound, the GI50 (TK-10 renal) was 3000 nM, the TGI (TK-10 renal) was greater than 40900 nM and the GI50 (SNB-19 CNS) was 456 nM. For the same compound, the TGI (SNB-19 CNS) was greater than 100000 nM, the GI50 (EKVX NSCLC) was 621 nM and the TGI (EKVX NSCLC) was greater than 100000 nM. For the same compound, the GI50 (SK-OV-3 ovarian) was 522 nM, the TGI (SK-OV-3 ovarian) was greater than 86100 nM and the GI50 (HOP-62 NSCLC) was 517 nM. The TGI (HOP-62 NSCLC) was 34200 nM, the GI50 (NCI-H522 lung) was 265 nM and the TGI (NCI-H522 lung) was 17600 nM. The GI50 (IGROV1 ovarian) was 473 nM, the TGI (IGROV1 ovarian) was greater than 100000 nM and the GI50 (NCI/ADR-RES ovarian) was 319 nM. It also gave a TGI (NCI/ADR-RES ovarian) of 4570 nM, a GI50 (KM12 colon) of 389 nM and a TGI (KM12 colon) of 22200 nM. For the same compound, the GI50 (HCT-116 colon) was 409 nM, the TGI (HCT-116 colon) was 11500 nM and the GI50 (HT29 colon) was 331 nM. It also gave a TGI (HT29 colon) of 4290 nM, a GI50 (LOX IMVI melanoma) of 571 nM and a TGI (LOX IMVI melanoma) of 13700 nM. It also gave a GI50 (M14 melanoma) of 298 nM, a TGI (M14 melanoma) greater than 100000 nM and a GI50 (HL-60(TB) leukemia) of 310 nM. For the same compound, the TGI (HL-60(TB) leukemia) was 1060 nM, the GI50 (MDA-MB-435) was 142 nM and the TGI (MDA-MB-435) was 357 nM. The GI50 (COLO 205 colon) was 485 nM, the TGI (COLO 205 colon) was 9880 nM and the GI50 (T-47D breast) was 556 nM. It also gave a TGI (T-47D breast) greater than 100000 nM, a GI50 (SK-MEL-5 melanoma) of 338 nM and a TGI (SK-MEL-5 melanoma) of 5870 nM. The GI50 (SN12C renal) was 579 nM, the TGI (SN12C renal) was 17000 nM and the GI50 (U251 CNS) was 456 nM. For the same compound, the TGI (U251 CNS) was 13900 nM, the GI50 (HOP-92 NSCLC) was 4790 nM and the TGI (HOP-92 NSCLC) was greater than 78700 nM. It also gave a GI50 (MOLT-4 leukemia) of 531 nM, a TGI (MOLT-4 leukemia) greater than 100000 nM and a GI50 (SK-MEL-2 melanoma) of 631 nM. It also gave a TGI (SK-MEL-2 melanoma) greater than 100000 nM, a GI50 (SK-MEL-28 melanoma) of 2040 nM and a TGI (SK-MEL-28 melanoma) greater than 100000 nM. The GI50 (OVCAR-4 ovarian) was 1490 nM, the TGI (OVCAR-4 ovarian) was 13100 nM and the GI50 (MDA-MB-231 breast) was 991 nM. It also gave a TGI (MDA-MB-231 breast) of 12000 nM, a GI50 (SNB-75 CNS) of 184 nM and a TGI (SNB-75 CNS) of 829 nM. It also gave a GI50 (OVCAR-5 ovarian) of 915 nM, a TGI (OVCAR-5 ovarian) greater than 91600 nM and a GI50 (SF-268 CNS) of 1360 nM. For the same compound, the TGI (SF-268 CNS) was greater than 68000 nM, the GI50 (MCF7 breast) was 298 nM and the TGI (MCF7 breast) was greater than 100000 nM. For the same compound, the GI50 (HCC-2998 colon) was 1080 nM, the TGI (HCC-2998 colon) was 8220 nM and the GI50 (DU-145 prostate) was 430 nM. The TGI (DU-145 prostate) was 27900 nM, the GI50 (RXF 393 renal) was 199 nM and the TGI (RXF 393 renal) was 658 nM. The GI50 (A549 NSCLC) was 653 nM, the TGI (A549 NSCLC) was 14700 nM and the GI50 (SF-295 CNS) was 293 nM. For the same compound, the GI50 (SR leukemia) was 261 nM, the TGI (SR leukemia) was greater than 100000 nM and the GI50 (UACC-257 melanoma) was 60000 nM. It also gave a TGI (UACC-257 melanoma) greater than 100000 nM.
